In patent publication US8765748B2, “Indazolyl, benzimidazolyl, benzotriazolyl substituted indolinone derivatives as kinase inhibitors useful in the treatment of cancer” (University Health Network, priority 2007, dated 2014):

Experiments:
Assay in all cases: Kinase Selectivity Assay (CEREP, HTRF)
Format in all cases: biochemical
Src kinase = Src kinase (Homo sapiens, UniProt P12931); conditions: read-out: % Inhibition at 10 μM Concentration, Src
Procedure: (§1) kinase, ROCK2, RSK2, Src kinase, Syk, and TRKA. The % Inhibition was determined

CHK1 = target: T1, CHK1 (Homo sapiens, UniProt O14757); conditions: read-out: % Inhibition at 10 μM Concentration, CHK1
T1 construct: CEREP, France (ran the assays)
T1 sequence (O14757 1-476): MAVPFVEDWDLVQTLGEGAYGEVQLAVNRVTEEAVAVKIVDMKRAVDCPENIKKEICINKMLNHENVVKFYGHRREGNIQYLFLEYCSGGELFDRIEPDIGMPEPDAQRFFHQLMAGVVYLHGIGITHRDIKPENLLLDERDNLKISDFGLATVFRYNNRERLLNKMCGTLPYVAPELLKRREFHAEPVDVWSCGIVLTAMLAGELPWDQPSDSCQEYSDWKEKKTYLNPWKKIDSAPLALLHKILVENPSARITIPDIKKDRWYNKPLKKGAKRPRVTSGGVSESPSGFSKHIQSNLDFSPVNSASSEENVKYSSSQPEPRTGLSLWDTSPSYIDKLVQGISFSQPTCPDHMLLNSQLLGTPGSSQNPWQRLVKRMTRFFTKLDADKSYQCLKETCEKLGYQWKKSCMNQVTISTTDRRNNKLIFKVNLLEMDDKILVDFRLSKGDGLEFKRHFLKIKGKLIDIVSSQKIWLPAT
Procedure: as §1

ERK1 = target: T2, ERK1 (Homo sapiens, UniProt P27361); conditions: read-out: % Inhibition at 10 μM Concentration, ERK1
T2 construct: CEREP, France (ran the assays)
Procedure: as §1

CSK = target: T3, CSK (Homo sapiens, UniProt P41240); conditions: read-out: % Inhibition at 10 μM Concentration, CSK
T3 construct: CEREP, France (ran the assays)
T3 sequence (P41240 whole entry): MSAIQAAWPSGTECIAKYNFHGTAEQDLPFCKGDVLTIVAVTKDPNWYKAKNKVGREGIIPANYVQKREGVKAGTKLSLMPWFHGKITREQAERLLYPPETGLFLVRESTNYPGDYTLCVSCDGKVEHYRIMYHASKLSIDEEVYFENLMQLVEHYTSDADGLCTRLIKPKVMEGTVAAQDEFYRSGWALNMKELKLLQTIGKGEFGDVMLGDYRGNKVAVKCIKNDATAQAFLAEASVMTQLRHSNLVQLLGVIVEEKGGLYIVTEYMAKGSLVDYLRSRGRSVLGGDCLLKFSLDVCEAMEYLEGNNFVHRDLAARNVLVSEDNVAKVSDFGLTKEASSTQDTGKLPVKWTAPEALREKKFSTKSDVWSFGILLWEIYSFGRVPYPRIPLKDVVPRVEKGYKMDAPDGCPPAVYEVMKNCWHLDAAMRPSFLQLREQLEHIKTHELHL
Procedure: as §1

PDGFRb kinase = PDGFRb kinase (Homo sapiens, UniProt P09619); conditions: read-out: % Inhibition at 10 μM Concentration, PDGFRbeta
Chain of PDGFRb kinase (P09619 33-1106): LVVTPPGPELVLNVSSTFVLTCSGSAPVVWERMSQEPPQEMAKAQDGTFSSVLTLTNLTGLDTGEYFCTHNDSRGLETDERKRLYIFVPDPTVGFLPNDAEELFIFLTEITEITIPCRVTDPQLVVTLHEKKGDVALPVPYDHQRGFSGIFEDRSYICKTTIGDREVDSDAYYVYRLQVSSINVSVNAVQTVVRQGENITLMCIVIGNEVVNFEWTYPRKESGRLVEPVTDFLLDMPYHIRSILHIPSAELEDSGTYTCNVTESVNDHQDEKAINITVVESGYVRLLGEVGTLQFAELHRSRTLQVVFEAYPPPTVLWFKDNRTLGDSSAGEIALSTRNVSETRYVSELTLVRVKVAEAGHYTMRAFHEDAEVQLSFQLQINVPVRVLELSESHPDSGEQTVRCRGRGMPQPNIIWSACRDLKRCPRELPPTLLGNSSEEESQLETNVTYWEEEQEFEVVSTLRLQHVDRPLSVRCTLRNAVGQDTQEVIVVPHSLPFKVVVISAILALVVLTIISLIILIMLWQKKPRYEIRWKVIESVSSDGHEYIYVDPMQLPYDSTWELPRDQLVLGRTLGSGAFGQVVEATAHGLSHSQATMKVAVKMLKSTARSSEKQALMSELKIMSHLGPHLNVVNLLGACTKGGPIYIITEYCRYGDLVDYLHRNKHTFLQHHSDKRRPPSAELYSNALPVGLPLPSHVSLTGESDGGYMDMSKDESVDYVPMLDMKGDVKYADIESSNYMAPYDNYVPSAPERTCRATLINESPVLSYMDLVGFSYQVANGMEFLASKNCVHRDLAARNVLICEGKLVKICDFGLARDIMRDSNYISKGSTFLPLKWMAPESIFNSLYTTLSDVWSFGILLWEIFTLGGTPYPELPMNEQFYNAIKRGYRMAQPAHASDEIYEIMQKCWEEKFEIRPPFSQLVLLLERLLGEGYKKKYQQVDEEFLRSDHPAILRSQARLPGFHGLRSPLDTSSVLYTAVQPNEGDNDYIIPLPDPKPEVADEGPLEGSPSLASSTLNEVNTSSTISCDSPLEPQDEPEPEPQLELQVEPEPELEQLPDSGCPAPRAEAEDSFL
Procedure: as §1

c-Met kinase = target: T4, c-Met kinase (Homo sapiens, UniProt P08581); conditions: read-out: % Inhibition at 10 μM Concentration, c-Met
T4 construct: CEREP, France (ran the assays)
T4 sequence (P08581 25-1390): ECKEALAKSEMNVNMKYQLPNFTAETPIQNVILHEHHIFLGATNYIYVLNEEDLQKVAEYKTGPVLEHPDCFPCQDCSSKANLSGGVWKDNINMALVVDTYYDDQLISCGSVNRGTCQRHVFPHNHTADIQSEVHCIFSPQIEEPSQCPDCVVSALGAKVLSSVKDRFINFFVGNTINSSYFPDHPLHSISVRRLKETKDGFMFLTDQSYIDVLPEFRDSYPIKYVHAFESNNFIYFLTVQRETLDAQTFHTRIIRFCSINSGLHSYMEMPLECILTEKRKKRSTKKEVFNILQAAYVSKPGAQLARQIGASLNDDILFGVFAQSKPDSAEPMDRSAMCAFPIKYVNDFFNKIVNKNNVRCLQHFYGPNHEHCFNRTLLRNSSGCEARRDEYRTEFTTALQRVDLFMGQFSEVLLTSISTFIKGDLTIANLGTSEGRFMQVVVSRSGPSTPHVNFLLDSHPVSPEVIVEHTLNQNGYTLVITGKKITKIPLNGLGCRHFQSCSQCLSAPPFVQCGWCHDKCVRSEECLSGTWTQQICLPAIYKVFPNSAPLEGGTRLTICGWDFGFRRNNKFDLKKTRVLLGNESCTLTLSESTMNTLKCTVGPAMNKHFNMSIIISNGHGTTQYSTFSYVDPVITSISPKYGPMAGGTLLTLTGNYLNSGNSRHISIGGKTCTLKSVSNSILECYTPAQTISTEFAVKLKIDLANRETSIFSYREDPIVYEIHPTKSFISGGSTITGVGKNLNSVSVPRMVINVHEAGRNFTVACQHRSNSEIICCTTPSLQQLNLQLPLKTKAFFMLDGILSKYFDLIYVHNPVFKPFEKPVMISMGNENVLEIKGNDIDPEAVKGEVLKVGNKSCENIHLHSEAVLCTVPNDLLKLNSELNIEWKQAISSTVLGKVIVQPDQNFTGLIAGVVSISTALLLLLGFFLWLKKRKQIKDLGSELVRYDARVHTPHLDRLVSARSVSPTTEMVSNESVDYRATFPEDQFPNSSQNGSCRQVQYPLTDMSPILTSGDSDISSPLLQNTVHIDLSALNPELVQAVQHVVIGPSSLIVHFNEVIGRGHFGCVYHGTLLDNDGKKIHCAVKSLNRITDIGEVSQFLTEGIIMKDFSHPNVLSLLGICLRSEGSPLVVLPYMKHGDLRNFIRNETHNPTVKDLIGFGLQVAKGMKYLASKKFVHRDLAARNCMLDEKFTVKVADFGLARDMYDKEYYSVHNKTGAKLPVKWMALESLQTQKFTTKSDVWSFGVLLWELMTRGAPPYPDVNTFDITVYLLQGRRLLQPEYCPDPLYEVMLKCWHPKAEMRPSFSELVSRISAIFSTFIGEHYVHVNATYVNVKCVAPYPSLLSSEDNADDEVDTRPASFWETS
Procedure: as §1

PDK1 = target: T5, PDK1 (Homo sapiens, UniProt O15530); conditions: read-out: % Inhibition at 10 μM Concentration, PDK1
T5 sequence (O15530 1-556): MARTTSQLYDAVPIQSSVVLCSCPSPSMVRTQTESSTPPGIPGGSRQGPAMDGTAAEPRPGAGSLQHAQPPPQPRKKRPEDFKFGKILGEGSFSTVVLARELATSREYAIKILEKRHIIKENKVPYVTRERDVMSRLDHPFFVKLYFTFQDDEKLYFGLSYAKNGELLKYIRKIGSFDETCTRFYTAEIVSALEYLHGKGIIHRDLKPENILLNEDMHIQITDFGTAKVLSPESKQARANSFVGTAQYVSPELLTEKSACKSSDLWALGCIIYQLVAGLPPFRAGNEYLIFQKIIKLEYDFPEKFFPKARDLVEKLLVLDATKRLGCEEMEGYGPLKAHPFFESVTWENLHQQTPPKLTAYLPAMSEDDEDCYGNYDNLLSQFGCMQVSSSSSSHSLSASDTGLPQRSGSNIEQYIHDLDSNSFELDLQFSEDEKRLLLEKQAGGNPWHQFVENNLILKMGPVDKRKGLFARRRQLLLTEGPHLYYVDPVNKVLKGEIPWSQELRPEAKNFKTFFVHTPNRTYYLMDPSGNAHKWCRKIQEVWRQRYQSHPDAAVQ
Procedure: as §1

IGF1R kinase = IGF1R kinase (Homo sapiens, UniProt P08069); conditions: read-out: % Inhibition at 10 μM Concentration, IGF1R
Chain of IGF1R kinase (P08069 31-1367): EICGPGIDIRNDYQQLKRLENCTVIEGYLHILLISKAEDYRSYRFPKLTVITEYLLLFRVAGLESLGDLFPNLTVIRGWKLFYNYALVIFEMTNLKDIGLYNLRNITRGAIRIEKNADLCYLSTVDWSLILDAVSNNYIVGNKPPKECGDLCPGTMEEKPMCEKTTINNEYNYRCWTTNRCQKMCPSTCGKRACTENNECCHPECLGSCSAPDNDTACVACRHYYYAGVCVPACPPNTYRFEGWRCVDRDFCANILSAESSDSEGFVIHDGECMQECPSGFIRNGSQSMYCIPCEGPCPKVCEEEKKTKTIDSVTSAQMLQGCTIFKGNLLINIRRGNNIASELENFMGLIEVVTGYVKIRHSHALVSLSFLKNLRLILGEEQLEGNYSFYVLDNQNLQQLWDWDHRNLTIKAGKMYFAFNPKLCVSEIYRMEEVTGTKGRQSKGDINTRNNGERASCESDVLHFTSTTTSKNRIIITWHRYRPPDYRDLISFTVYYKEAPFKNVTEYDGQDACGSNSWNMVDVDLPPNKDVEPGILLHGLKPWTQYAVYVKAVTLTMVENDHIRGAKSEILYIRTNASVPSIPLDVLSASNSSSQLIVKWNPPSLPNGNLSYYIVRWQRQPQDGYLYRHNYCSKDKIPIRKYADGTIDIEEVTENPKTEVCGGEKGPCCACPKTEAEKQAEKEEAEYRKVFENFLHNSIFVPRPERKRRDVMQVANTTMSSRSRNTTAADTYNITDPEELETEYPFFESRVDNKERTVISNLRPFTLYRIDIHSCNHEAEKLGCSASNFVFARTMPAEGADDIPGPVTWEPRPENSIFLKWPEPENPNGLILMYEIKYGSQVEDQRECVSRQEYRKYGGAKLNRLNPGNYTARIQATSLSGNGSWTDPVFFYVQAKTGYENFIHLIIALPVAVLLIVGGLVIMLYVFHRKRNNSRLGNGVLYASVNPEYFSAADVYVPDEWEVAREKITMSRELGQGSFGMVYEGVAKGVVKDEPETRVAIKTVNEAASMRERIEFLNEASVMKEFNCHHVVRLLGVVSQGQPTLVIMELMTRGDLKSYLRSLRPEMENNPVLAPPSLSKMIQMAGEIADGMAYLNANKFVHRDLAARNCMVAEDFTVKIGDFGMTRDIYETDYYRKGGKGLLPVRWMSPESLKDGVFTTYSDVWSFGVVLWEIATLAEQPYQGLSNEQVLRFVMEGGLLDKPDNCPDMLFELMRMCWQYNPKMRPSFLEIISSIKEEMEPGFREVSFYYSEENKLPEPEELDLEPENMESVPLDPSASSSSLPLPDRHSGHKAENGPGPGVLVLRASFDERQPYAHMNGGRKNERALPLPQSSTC
Procedure: as §1

MAPKAPK2 = MAPKAPK2 (Homo sapiens, UniProt P49137); conditions: read-out: % Inhibition at 10 μM Concentration, MAPKAPK2
Procedure: as §1

CaMK4 = target: T6, CaMK4 (Homo sapiens, UniProt Q16566); conditions: read-out: % Inhibition at 10 μM Concentration, CaMK4
T6 construct: CEREP, France (ran the assays)
T6 sequence (Q16566 1-473): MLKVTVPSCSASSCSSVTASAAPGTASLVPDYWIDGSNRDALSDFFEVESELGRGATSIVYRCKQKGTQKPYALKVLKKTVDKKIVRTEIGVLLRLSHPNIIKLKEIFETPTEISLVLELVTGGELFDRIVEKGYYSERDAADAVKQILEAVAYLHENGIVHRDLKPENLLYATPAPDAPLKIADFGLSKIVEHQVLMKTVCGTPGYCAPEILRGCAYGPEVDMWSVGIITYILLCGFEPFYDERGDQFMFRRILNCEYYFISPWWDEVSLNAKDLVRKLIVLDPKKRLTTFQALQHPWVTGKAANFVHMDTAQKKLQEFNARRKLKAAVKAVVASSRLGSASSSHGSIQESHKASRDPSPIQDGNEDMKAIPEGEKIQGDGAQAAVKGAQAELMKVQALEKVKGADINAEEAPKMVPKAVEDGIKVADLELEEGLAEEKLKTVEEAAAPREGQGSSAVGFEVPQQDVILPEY
Procedure: as §1

JNK 2 = JNK 2 (Homo sapiens, UniProt P45984); conditions: read-out: % Inhibition at 10 μM Concentration, JNK 2
Procedure: as §1

Chain of Src kinase (P12931 whole entry): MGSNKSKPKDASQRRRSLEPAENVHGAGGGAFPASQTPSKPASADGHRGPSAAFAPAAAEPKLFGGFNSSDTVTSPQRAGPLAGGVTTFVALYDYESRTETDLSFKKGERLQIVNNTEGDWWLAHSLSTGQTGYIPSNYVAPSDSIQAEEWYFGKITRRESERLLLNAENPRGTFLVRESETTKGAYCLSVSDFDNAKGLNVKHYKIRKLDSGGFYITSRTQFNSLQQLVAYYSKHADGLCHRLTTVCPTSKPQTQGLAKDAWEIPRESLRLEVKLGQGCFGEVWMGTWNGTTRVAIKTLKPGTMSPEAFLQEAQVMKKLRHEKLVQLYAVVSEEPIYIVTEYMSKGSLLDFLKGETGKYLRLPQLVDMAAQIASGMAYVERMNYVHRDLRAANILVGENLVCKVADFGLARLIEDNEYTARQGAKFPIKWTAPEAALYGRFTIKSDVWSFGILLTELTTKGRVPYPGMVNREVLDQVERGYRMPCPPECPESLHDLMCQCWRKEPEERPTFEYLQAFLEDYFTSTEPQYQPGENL

In the case of `O=C1Nc2ccccc2/C1=C\c1ccc2cn[nH]c2c1` [Example A5, (E)-3-((1H-indazol-6-yl)methylene)indolin-2-one], the inhibition at 10 µM (Src kinase) is reported as -9%, the inhibition at 10 µM (CHK1) is reported as -2% and the inhibition at 10 µM (ERK1) is reported as 6%. It also gave an inhibition at 10 µM (CSK) of 5%, an inhibition at 10 µM (PDGFRb kinase) of 19% and an inhibition at 10 µM (c-Met kinase) of 2%. The inhibition at 10 µM (PDK1) was 2%, the inhibition at 10 µM (IGF1R kinase) was -4% and the inhibition at 10 µM (MAPKAPK2) was 0%. For the same molecule, the inhibition at 10 µM (CaMK4) was 26% and the inhibition at 10 µM (JNK 2) was 14%.
For `COc1ccc2c(c1)C(=Cc1ccc3c(-c4ccc(N5CCN(C)CC5)nc4)n[nH]c3c1)C(=O)N2` (mixture of isomers) [Example A97, (E and Z)-5-methoxy-3-((3-(6-(4-methylpiperazin-1-yl)pyridin-3-yl)-1H-indazol-6-yl)methylene)indolin-2-one], the inhibition at 10 µM (Src kinase) was 24%, the inhibition at 10 µM (CHK1) was 3% and the inhibition at 10 µM (ERK1) was 10%. For the same molecule, the inhibition at 10 µM (CSK) was 51%, the inhibition at 10 µM (PDGFRb kinase) was 0% and the inhibition at 10 µM (c-Met kinase) was 28%. It also gave an inhibition at 10 µM (PDK1) of 73%, an inhibition at 10 µM (IGF1R kinase) of 4% and an inhibition at 10 µM (MAPKAPK2) of 4%. It also gave an inhibition at 10 µM (CaMK4) of 2% and an inhibition at 10 µM (JNK 2) of 14%.
In the case of `O=C1Nc2ccccc2C1=Cc1ccc2c(/C=C/c3ccccn3)n[nH]c2c1` (mixture of isomers) [Example A41, (E and Z)-3-((3-((E)-2-(pyridin-2-yl)vinyl)-1H-indazol-6-yl)methylene)indolin-2-one], the inhibition at 10 µM (Src kinase) is reported as 59%, the inhibition at 10 µM (CHK1) is reported as 7% and the inhibition at 10 µM (ERK1) is reported as 13%. The inhibition at 10 µM (CSK) was 86%, the inhibition at 10 µM (PDGFRb kinase) was 100% and the inhibition at 10 µM (c-Met kinase) was 35%. The inhibition at 10 µM (PDK1) was 4%, the inhibition at 10 µM (IGF1R kinase) was 43% and the inhibition at 10 µM (MAPKAPK2) was 0%. It also gave an inhibition at 10 µM (CaMK4) of 27% and an inhibition at 10 µM (JNK 2) of 52%.
`O=C1Nc2ccccc2/C1=C\c1ccc2[nH]nnc2c1` [Example A1, (E)-3-((1H-benzo[d][1,2,3]triazol-5-yl)methylene)indolin-2-one] gave an inhibition at 10 µM (Src kinase) of 10%, an inhibition at 10 µM (CHK1) of -6% and an inhibition at 10 µM (ERK1) of 6%. The inhibition at 10 µM (CSK) was 8%, the inhibition at 10 µM (PDGFRb kinase) was 46% and the inhibition at 10 µM (c-Met kinase) was -20%. The inhibition at 10 µM (PDK1) was -3%, the inhibition at 10 µM (IGF1R kinase) was 7% and the inhibition at 10 µM (MAPKAPK2) was 6%. For the same molecule, the inhibition at 10 µM (CaMK4) was 3% and the inhibition at 10 µM (JNK 2) was 13%.
`O=C1Nc2ccccc2/C1=C\c1ccc2c(/C=C/c3ccccc3Cl)n[nH]c2c1` [Example A60, (E)-3-((3-((E)-2-chlorostyryl)-1H-indazol-6-yl)methylene)indolin-2-one] was tested, and the inhibition at 10 µM (Src kinase) was 0%, the inhibition at 10 µM (CHK1) was -1% and the inhibition at 10 µM (ERK1) was 1%. It also gave an inhibition at 10 µM (CSK) of 17%, an inhibition at 10 µM (PDGFRb kinase) of 2% and an inhibition at 10 µM (c-Met kinase) of 0%. It also gave an inhibition at 10 µM (PDK1) of 1%, an inhibition at 10 µM (IGF1R kinase) of 81% and an inhibition at 10 µM (MAPKAPK2) of 19%. It also gave an inhibition at 10 µM (CaMK4) of -15% and an inhibition at 10 µM (JNK 2) of 3%.
